Source: ChEMBL document CHEMBL4725286, “Synthesis and antibiofilm evaluation of 3-hydroxy-2,3-dihydroquinazolin-4(1H)-one derivatives against opportunistic pathogen Acinetobacter baumannii” (2020)
Active and inactive are the calls of the source. The calls are words filed in the database; no cut-off is given here.

Assays:
Acinetobacter baumannii [1] = experiment: Antibiofilm activity against Acinetobacter baumannii assessed as inhibition of biofilm formation at 50 uM incubated for 24 hrs at stationary condition by crystal violet staining based assay relative to control; type: functional
Acinetobacter baumannii [2] = experiment: Antibiofilm activity against Acinetobacter baumannii assessed as inhibition of planktonic growth at 300 uM; type: functional, organism-based
Acinetobacter baumannii [3] = experiment: Antibacterial activity against Acinetobacter baumannii S1 incubated for 24 hrs by checkerboard titration assay; type: functional
Acinetobacter baumannii [4] = experiment: Synergistic antibacterial activity against Acinetobacter baumannii S1 assessed as FIC incubated for 24 hrs in presence of 3-hydroxy-2-isopropyl-1-octyl-2,3-dihydroquinazolin-4(1H)-one by checkerboard titration assay; type: functional
Acinetobacter baumannii [5] = experiment: Synergistic antibacterial activity against Acinetobacter baumannii S1 assessed as FIC incubated for 24 hrs in presence of 1-(3-chlorobenzyl)-3-hydroxy-2-(2-hydroxyphenyl)-2,3-dihydroquinazolin-4(1H)-one by checkerboard titration assay; type: functional
Acinetobacter baumannii [6] = experiment: Antibacterial activity against Acinetobacter baumannii assessed as bacterial death at 50 uM incubated for 15 mins by SYTO9 and PI staining based fluorescence microscopic method; type: functional, organism-based
Acinetobacter baumannii [7] = experiment: Antibiofilm activity against drug-resistant Acinetobacter baumannii 1925052 assessed as inhibition of biofilm formation at 50 uM incubated for 24 hrs at stationary condition by crystal violet staining based assay relative to control; type: functional
Escherichia coli = experiment: Antibiofilm activity against Escherichia coli assessed as inhibition of biofilm formation at 50 uM incubated for 24 hrs at stationary condition by crystal violet staining based assay relative to control; type: functional; settings: DH5[alpha]
Pseudomonas aeruginosa = experiment: Antibiofilm activity against Pseudomonas aeruginosa ATCC 27853 assessed as inhibition of biofilm formation at 50 uM incubated for 24 hrs at stationary condition by crystal violet staining based assay relative to control; type: functional
Acinetobacter baumannii [8] = experiment: Antibacterial activity against Acinetobacter baumannii assessed as reduction in motility at 50 uM after 24 hrs photographic-based method; type: functional, organism-based
Acinetobacter baumannii [9] = experiment: Induction of morphological changes in Acinetobacter baumannii biofilm inhibition assessed as reduction in extracellular polysaccharide at 10 uL preincubated for 24 hrs followed by incubating in dark for 1 hr by optical density based plate reader assay relative to control; type: functional; parameters: scale not given: the % may be the effect or the level left
Acinetobacter baumannii [10] = experiment: Synergistic antibacterial activity against Acinetobacter baumannii S1 incubated for 24 hrs in presence of gentamycin sulfate by checkerboard titration assay; type: functional
Acinetobacter baumannii [11] = experiment: Synergistic antibacterial activity against Acinetobacter baumannii S1 assessed as FIC incubated for 24 hrs in presence of gentamycin sulfate by checkerboard titration assay; type: functional
Acinetobacter baumannii [12] = experiment: Synergistic antibacterial activity against Acinetobacter baumannii S1 assessed as FICI incubated for 24 hrs in presence of gentamycin sulfate by checkerboard titration assay; type: functional

Row | Compound | inhibition at 50 µM (Acinetobacter baumannii [1]) [%] | inhibition (Acinetobacter baumannii [2]) | further results
1 | CCCCN1c2ccccc2C(=O)N(O)C1c1ccccc1O (stereo not given) | 29.7 | inactive | –
2 | CCCCCCCCN1c2ccccc2C(=O)N(O)C1c1ccc(C)cc1 (stereo not given) | 9.2 | inactive | –
3 | CN[C@@H]1[C@@H](O)[C@@H](O[C@@H]2[C@@H](O)[C@H](O[C@H]3O[C@H]([C@@H](C)NC)CC[C@H]3N)[C@@H](N)C[C@H]2N)OC[C@]1(C)O.O=S(=O)(O)O | – | – | MIC (Acinetobacter baumannii [3]): 0.25 µg/mL; FIC (Acinetobacter baumannii [4]): 0.25; FIC (Acinetobacter baumannii [5]): 0.25
4 | CCCCCCCCN1c2ccccc2C(=O)N(O)C1c1ccccc1Cl (stereo not given) | 8.1 | inactive | –
5 | CCCCCCCCN1c2ccccc2C(=O)N(O)C1c1ccc(OC)cc1 (stereo not given) | 1.3 | inactive | –
6 | CCCCCCCCN1c2ccccc2C(=O)N(O)C1c1ccc(Cl)cc1 (stereo not given) | 5.2 | inactive | –
7 | CCC/C=C/C1N(O)C(=O)c2ccccc2N1CCCCCCCC (stereo not given) | 2.4 | inactive | –
8 | CCCCCCCCCCCCCCN1c2ccccc2C(=O)N(O)C1c1ccccc1O (stereo not given) | 20.9 | inactive | –
9 | CCCCCCCCN1c2ccccc2C(=O)N(O)C1C(C)C (stereo not given) | 10.2 | inactive | Activity (Acinetobacter baumannii [6]): inactive
10 | O=C1c2ccccc2NC(c2ccccc2O)N1O (stereo not given) | 16.3 | inactive | –
11 | CCCCCCCCCCN1c2ccccc2C(=O)N(O)C1c1ccccc1O (stereo not given) | 30.7 | inactive | inhibition at 50 µM (Acinetobacter baumannii [7]): 43.4%; inhibition at 50 µM (Escherichia coli): 40.8%; inhibition at 50 µM (Pseudomonas aeruginosa): 44.5%; Activity (Acinetobacter baumannii [8]): Active; Activity (Acinetobacter baumannii [9]): 31%; MIC (Acinetobacter baumannii [3]): 1020 µg/mL; MIC (Acinetobacter baumannii [10]): 2 µg/mL; Ratio (Acinetobacter baumannii [11]): 0.002; fractional inhibitory concentration index (FICI) (Acinetobacter baumannii [12]): 0.252
12 | N#Cc1ccccc1CN1c2ccccc2C(=O)N(O)C1c1ccccc1O (stereo not given) | 17.6 | inactive | –
13 | CCCCCCCCN1c2ccccc2C(=O)N(O)C1c1ccccc1OC (stereo not given) | 7.2 | inactive | –
14 | CCCCCCCCCCCCCCCCN1c2ccccc2C(=O)N(O)C1c1ccccc1O (stereo not given) | 4.7 | inactive | –
15 | CN1c2ccccc2C(=O)N(O)C1c1ccccc1O (stereo not given) | 14.6 | inactive | –
16 | CCCCCCCCN1c2ccccc2C(=O)N(O)C1c1ccccc1 (stereo not given) | 5.5 | inactive | –
17 | O=C1c2ccccc2N(Cc2cccc(Cl)c2)C(c2ccccc2O)N1O (stereo not given) | 34.1 | inactive | inhibition at 50 µM (Acinetobacter baumannii [7]): 38.2%; inhibition at 50 µM (Escherichia coli): 27.5%; inhibition at 50 µM (Pseudomonas aeruginosa): 55.4%; Activity (Acinetobacter baumannii [8]): Active; Activity (Acinetobacter baumannii [9]): 34%; MIC (Acinetobacter baumannii [3]): 1020 µg/mL; MIC (Acinetobacter baumannii [10]): 2 µg/mL; Ratio (Acinetobacter baumannii [11]): 0.002; fractional inhibitory concentration index (FICI) (Acinetobacter baumannii [12]): 0.252
18 | O=C1c2ccccc2N(Cc2cccc(F)c2)C(c2ccccc2O)N1O (stereo not given) | 27.5 | inactive | –
19 | O=C1c2ccccc2N(Cc2ccccc2)C(c2ccccc2O)N1O (stereo not given) | 17.5 | inactive | –
20 | CCCCCCCCCCCCN1c2ccccc2C(=O)N(O)C1c1ccccc1O (stereo not given) | 8.9 | inactive | –
21 | O=C(Cc1cccc(Br)c1)N[C@H]1CCOC1=O | 7.9 | – | inhibition at 50 µM (Acinetobacter baumannii [7]): 28.2%; inhibition at 50 µM (Escherichia coli): 50.1%; inhibition at 50 µM (Pseudomonas aeruginosa): -1.72%
22 | CCCCCCCCN1c2ccccc2C(=O)N(O)C1c1ccccc1O (stereo not given) | 23.5 | inactive | –
23 | CCCCCCCCN1c2ccccc2C(=O)N(O)C1c1ccc(O)cc1 (stereo not given) | 13.3 | inactive | –
24 | CCCCCCN1c2ccccc2C(=O)N(O)C1c1ccccc1O (stereo not given) | 7.7 | inactive | –
